Assay [1] has as its system splenic immune cells (T cells, myeloid cells, B cells, NK cells). The assay can be described thus: mOX40L expression in splenic immune cells, flow cytometry. It is filed as in vivo, C57BL/6 female mice. The conditions noted are these: 1 mg/kg intravenously, 24 hours, IL:P 5.7, 50:10:38.5:1.5; compared to Lipid 15 of Table 10f. On the procedure: The ionizable lipid: helper lipid: cholesterol: PEG-lipid molar ratio of these LNPs was 50:10:38.5:1.5. Dialysis of the LNPs were performed using PBS. C57BL/6 female mice (6-8 weeks, n=4) were dosed at either LNP comprising Lipid 1 of Table 10e or the Lipid 15 of Table 10f at 1 mg/kg intravenously. At 24 hours, the spleen from the mice were collected for flow cytometry analysis. mOX40L transfection of Lipid 1 of Table 10e and Lipid 15 of Table 10f were compared in T cells, myeloid cells, B cells, and NK cells.

In another assay the test system is splenic T cells. The assay can be described thus: mOX40L expression in splenic T cells, flow cytometry. Conditions: 1 mg/kg intravenously, 24 hours, IL:P 5.7. Type of assay: in vivo, C57BL/6 female mice. As to the method:
The ionizable lipid: helper lipid: cholesterol: PEG-lipid molar ratio of these LNPs was 50:10:38.5:1.5. C57BL/6 female mice (6-8 weeks, n=4) were dosed at 1 mg/kg intravenously. At 24 hours, the spleen from the mice were collected for flow cytometry analysis, tested for weight loss and measured for serum alanine aminotransferase (ALT) after blood collection. mOX40L expression was measured in splenic T cells.

The text below walks through data of patent publication US12077485B2, “Lipid nanoparticle compositions for delivering circular polynucleotides” (Orna Therapeutics, Inc., priority 2021, dated 2024).

For the compound `CCCCCCCCCCCCC(O)CN(CCCO)CCCCCCCC(=O)OC(CCCCCCCC)CCCCCCCC` (centres unmarked) [Lipid 1 of Table 10e, heptadecan-9-yl 8-((3-hydroxypropyl)(2-hydroxytetradecyl)amino)octanoate], in assay [1], the “mOX40L transfection in splenic immune cells” value is recorded as “comparable or higher levels of mOX40L transfection”. In addition, in the assay with splenic T cells, the “expression of mOX40L in splenic T cells” value is “resulted in expression of mOX40L in splenic T cells”.
